Each block holds one compound with its values, some of them ahead of it.
Experiments:
[1] = target: T1, Interleukin-8 receptors, CXCR1/CXCR2 (Homo sapiens) (UniProt P25025+P25024); experiment: Inhibition of IL-8 interaction with CXCR1/CXCR2 in human PMN leukocytes assessed as reduction in leukocyte migration after 5 days in presence of Diff-Quick staining by matrigel based microscopic analysis; assay type: cell-based; conditions: concentration not given here
[2] = target: T1, Interleukin-8 receptors, CXCR1/CXCR2 (Homo sapiens); experiment: Inhibition of GROalpha interaction with CXCR1/CXCR2 in human PMN leukocytes assessed as reduction in leukocyte migration after 5 days in presence of Diff-Quick staining by matrigel based microscopic analysis; assay type: cell-based; conditions: concentration not given here
[3] = target: T1, Interleukin-8 receptors, CXCR1/CXCR2 (Homo sapiens); experiment: Inhibition of […] interaction with CXCR1/CXCR2 in human PMN leukocytes assessed as reduction in leukocyte migration after 5 days in presence of Diff-Quick staining by matrigel based microscopic analysis; assay type: cell-based; conditions: concentration not given here
A549 [4] = experiment: Antiproliferative activity against human A549 cells after 72 hrs by MTT assay; assay type: functional, cell-based; conditions: A549, 72 h
NIH3T3 [5] = experiment: Antiproliferative activity against mouse NIH/3T3 cells after 72 hrs by MTT assay; assay type: cell-based; conditions: NIH3T3, 72 h
Rattus norvegicus [6] = experiment: Anti-inflammatory activity in Sprague-Dawley rat assessed as inhibition of LPS-induced TNFalpha production administered via oral gavage for 1 hr followed by LPS challenge measured after 1.5 hrs by ELISA; assay type: functional
NIH3T3 [7] = experiment: Anticancer activity against mouse NIH/3T3 cells after 24 hrs by cell titer 96 aqueous one solution based assay; conditions: NIH3T3, 24 h
[8] = Inhibition of Wnt/beta-catenin signaling in human NL-20 cells by beta-catenin-based reporter assay; assay type: cell-based; conditions: NL20
[9] = Elimination half life in healthy human at 801 mg; assay type: ADME; conditions: in vivo, read-out: beta t1/2 (converted)
Rattus norvegicus [10] = experiment: Antifibrotic activity in […] rat bleomycin-induced pulmonary fibrosis model assessed as hydroxyproline content in lung at 0.04 g/day administered via oral gavage by spectrophotometric analysis; assay type: functional
NIH3T3 [11] = experiment: Antiproliferative activity against mouse NIH/3T3 cells by MTT assay; assay type: cell-based
[12] = target: Disintegrin and metalloproteinase domain-containing protein 17 (Homo sapiens, UniProt P78536); experiment: Inhibition of recombinant TACE catalytic domain (unknown origin) using pro-TNFalpha peptide Abz-LAQAVRSSSR-Dpa as substrate preincubated for 10 mins followed by substrate addition measured after 10 mins by FRET assay
A549 [13] = experiment: Anticancer activity against human A549 cells after 24 hrs by cell titer 96 aqueous one solution based assay; assay type: functional; conditions: A549, 24 h
[14] = Inhibition of TGF-beta (unknown origin); parameters: species or system Homo sapiens
NIH3T3 [15] = experiment: Antiproliferative activity against mouse NIH/3T3 cells; assay type: cell-based
Cathepsin B = Cathepsin B (Homo sapiens, UniProt P07858); experiment: Inhibition of human liver cathepsin B using Boc-Leu-Arg-Arg-AMC as substrate preincubated for 15 mins followed by substrate addition measured after 30 mins by spectrofluorimetric analysis
[16] = target: T2, Mitogen-activated protein kinase kinase kinase 5 (Homo sapiens, UniProt Q99683); experiment: Inhibition of recombinant human ASK1 using STK3 peptide as substrate incubated for 30 mins followed by ATP addition measured for 3 hrs by TR-FRET assay
T2 sequence (Q99683 whole entry): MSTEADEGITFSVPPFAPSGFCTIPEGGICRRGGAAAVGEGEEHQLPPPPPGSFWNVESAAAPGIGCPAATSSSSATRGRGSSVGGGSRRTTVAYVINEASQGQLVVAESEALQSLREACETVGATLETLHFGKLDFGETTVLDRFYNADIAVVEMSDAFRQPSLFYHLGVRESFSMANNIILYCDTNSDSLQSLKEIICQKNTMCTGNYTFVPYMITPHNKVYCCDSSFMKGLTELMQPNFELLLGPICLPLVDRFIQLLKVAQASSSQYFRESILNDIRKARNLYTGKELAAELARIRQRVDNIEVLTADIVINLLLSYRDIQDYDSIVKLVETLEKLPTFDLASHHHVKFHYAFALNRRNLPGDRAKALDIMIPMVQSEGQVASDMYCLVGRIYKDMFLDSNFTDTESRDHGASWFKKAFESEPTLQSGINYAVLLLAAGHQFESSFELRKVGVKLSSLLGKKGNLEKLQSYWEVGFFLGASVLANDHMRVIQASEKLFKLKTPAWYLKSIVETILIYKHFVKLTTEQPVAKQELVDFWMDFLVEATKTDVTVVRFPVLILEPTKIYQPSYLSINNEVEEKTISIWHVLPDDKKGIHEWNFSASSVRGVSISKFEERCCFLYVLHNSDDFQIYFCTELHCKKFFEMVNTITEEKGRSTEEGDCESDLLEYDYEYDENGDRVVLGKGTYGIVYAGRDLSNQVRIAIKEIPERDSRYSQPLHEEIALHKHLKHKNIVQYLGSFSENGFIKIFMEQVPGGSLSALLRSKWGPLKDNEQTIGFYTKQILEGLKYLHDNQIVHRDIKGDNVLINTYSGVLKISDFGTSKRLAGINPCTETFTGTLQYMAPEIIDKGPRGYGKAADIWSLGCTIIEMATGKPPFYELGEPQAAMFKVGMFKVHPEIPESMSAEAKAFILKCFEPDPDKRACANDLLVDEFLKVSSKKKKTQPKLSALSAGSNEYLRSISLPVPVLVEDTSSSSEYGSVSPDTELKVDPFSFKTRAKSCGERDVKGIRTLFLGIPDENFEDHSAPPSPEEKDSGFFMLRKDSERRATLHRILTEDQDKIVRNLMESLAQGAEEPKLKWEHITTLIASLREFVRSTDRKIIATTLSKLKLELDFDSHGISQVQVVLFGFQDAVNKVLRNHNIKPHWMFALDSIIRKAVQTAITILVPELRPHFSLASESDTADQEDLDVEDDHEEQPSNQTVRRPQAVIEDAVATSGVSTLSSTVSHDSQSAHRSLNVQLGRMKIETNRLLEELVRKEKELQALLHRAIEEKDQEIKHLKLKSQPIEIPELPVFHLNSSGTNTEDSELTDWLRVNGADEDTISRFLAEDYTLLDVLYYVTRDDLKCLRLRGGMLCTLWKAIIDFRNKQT

Disintegrin and metalloproteinase domain-containing protein 17, sequence (P78536 whole entry, the tested form may be a part): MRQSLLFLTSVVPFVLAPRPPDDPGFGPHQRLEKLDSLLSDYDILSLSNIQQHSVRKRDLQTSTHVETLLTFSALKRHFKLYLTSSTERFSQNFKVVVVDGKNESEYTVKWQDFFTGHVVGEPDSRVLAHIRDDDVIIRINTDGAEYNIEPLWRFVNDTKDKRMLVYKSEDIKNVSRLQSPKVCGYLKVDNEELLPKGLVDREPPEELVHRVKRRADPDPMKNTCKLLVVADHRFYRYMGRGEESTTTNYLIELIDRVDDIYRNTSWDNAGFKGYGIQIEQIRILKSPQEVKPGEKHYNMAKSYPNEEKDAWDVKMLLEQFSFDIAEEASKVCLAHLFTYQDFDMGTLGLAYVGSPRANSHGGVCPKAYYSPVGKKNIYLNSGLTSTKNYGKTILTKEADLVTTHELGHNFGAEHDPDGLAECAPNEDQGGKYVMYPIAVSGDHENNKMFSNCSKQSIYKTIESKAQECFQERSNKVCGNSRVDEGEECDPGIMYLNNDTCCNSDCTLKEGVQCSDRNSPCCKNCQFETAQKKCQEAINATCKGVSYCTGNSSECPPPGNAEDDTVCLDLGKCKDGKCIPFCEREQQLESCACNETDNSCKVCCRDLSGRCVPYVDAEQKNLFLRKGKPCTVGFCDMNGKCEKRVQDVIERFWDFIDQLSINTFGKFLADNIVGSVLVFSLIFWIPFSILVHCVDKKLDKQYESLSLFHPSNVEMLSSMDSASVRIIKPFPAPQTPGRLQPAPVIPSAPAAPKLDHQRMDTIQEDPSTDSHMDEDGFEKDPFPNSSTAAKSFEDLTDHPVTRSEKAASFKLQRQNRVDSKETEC

SMILES: CNC(=O)C1c2nc(C3CCC(NC(=O)COC)CC3)nc(-c3ccc(F)cc3OC3CC3)c2NC1C (stereo not given)
- inhibition (INH) (Rattus norvegicus [6]): 7 - 99%

SMILES: O=c1ccc(COc2ccccc2)cn1-c1ccc(Cl)cc1
- IC50 (NIH3T3 [7]): 14 µM

SMILES: CC(C)Nc1cncc(-c2cnc3[nH]nc(-c4nc5c(-c6cncc(F)c6)cncc5[nH]4)c3c2)c1
- IC50 [8]: 0.067 µM

SMILES: Cc1ccc(=O)n(-c2ccccc2)c1 [PIRFENIDONE]
- half-life [9]: 3 h
- Activity (Rattus norvegicus [10]): 158.39 µmol
- IC50 (NIH3T3 [5]): 454 µM

SMILES: CCOc1ccc(-n2c(C)cc(C)c(C#N)c2=O)cc1
- Activity (Rattus norvegicus [10]): 119.55 µmol

SMILES: O=c1ccc2c(n1-c1ccc(Br)cc1)CCCC2O (stereo not given)
- IC50 (NIH3T3 [11]): 300 µM

SMILES: Cc1cc(COc2ccc(S(=O)(=O)N[C@@H]3CCC[C@@H]3C(=O)NO)cc2)c2ccccc2n1
- IC50 [12]: 0.0006 µM

SMILES: O=C(O)c1cc2c(O)cccc2n(-c2ccc(F)cc2Cl)c1=O
- IC50 (NIH3T3 [11]): 90 µM

SMILES: CCOc1ccc(-n2c(N)c(C#N)c(-c3ccccc3)c(C#N)c2=O)cc1
- Activity (Rattus norvegicus [10]): 48.55 µmol

SMILES: O=c1ccc(CNc2ccccc2F)cn1Cc1ccccc1
- IC50 (NIH3T3 [5]): 3 µM

SMILES: Cc1cccc(-n2cc(COc3ccccc3)ccc2=O)c1
- IC50 (NIH3T3 [7]): 16 µM

SMILES: CNC(=O)C1c2nc(C3CCC(NC(=O)COC)CC3)nc(-c3cc(C)ccc3OC3CC3)c2NC1C (stereo not given)
- inhibition (INH) (Rattus norvegicus [6]): 7 - 99%

SMILES: CCC(=O)NC1CCC(c2nc(-c3cc(C(F)(F)F)ccc3OC3CC3)c3c(n2)C(C(=O)NC)C(C)N3)CC1 (stereo not given)
- inhibition (INH) (Rattus norvegicus [6]): 7 - 99%

SMILES: CO[C@H]1O[C@H](CNc2ccccc2Cn2cc(C(F)(F)F)ccc2=O)[C@@H](O)[C@H](O)[C@H]1O
- IC50 (NIH3T3 [15]): 170 µM

SMILES: Cc1ccc(=O)n(-c2cccc(F)c2)c1 [FLUOROFENIDONE]
- IC50 (NIH3T3 [11]): 4200 µM

SMILES: CNC(=O)C1c2nc(C3CCC(NC(=O)COC)CC3)nc(-c3cc(C(F)(F)F)ccc3OC3CC3)c2NC1C (stereo not given)
- inhibition (INH) (Rattus norvegicus [6]): 7 - 99%

SMILES: CNC(=O)C1c2nc(C3CCC(NC(C)=O)CC3)nc(-c3cc(C(F)(F)F)ccc3OC3CC3)c2NC1C (stereo not given)
- inhibition (INH) (Rattus norvegicus [6]): 7 - 99%

SMILES: C[C@@H](C(=O)NCCN1CCCC1)c1ccc(OS(=O)(=O)C(F)(F)F)cc1
- inhibition [1]: 52%
- inhibition [2]: 0%
- inhibition [3]: 65%

The next lines start with results.

- inhibition [1]: 51%
- inhibition [2]: 0%
- inhibition [3]: 67%
SMILES: C[C@@H](C(=O)NCCCN1CCCC1)c1ccc(OS(=O)(=O)C(F)(F)F)cc1

- IC50 (A549 [4]): 20 µM
SMILES: COc1ccc(Cn2cc(COc3ccc(F)cc3)ccc2=O)cc1
- IC50 (NIH3T3 [5]): 55 µM

- IC50 (A549 [4]): 130 µM
SMILES: Cc1cccc(NCc2ccc(=O)n(Cc3ccccc3)c2)c1

- IC50 [8]: 0.175 µM
SMILES: Nc1cncc(-c2cnc3[nH]nc(-c4nc5c(-c6cccc(F)c6)cncc5[nH]4)c3c2)c1

- IC50 (A549 [13]): 130 µM
SMILES: Cc1cccc(-n2cc(CNc3ccccc3)ccc2=O)c1

- IC50 [14]: 0.02 µM
SMILES: NC(=O)c1cnccc1Nc1nc(-c2cc(Cl)ccc2F)nc2ncccc12

- IC50 [8]: 0.44 to 1.9 µM
SMILES: CN(C)c1cncc(-c2cnc3[nH]nc(-c4nc5c(-c6cccc(F)c6)cncc5[nH]4)c3c2)c1

- inhibition [1]: 67%
- inhibition [2]: 27%
SMILES: CCC(=O)c1cccc(CC(=O)O)c1Cl

- inhibition [1]: 67%
- inhibition [2]: 0%
SMILES: Cc1cc(CC(C)C)ccc1CC(=O)NS(C)(=O)=O

- IC50 (Cathepsin B): 0.027 µM
SMILES: COc1ccc2c(O[C@@H]3C[C@H](C(=O)N[C@@H](CC4CC4)C(=O)C(=O)NC4CC4)N(C[C@@H](NC(=O)NC(C)(C)C)C(C)(C)C)C3)nccc2c1

- IC50 [14]: 0.07 µM
SMILES: CNC(=O)c1cnccc1Nc1nc(-c2cc(Cl)ccc2F)nc2ncccc12

- IC50 [8]: 1.09 µM
SMILES: CN(C)c1cncc(-c2cnc3[nH]nc(-c4nc5c(-c6cccs6)cncc5[nH]4)c3c2)c1

- IC50 [16]: 0.0007 µM
SMILES: CC(n1cnnc1-c1nc(NC(=O)c2cc(-n3cnc(C4CC4)c3)c(N3CCCCC3)cn2)cs1)C(F)(F)F (stereo not given)

Source: ChEMBL document CHEMBL4024704, “Idiopathic Pulmonary Fibrosis: Current Status, Recent Progress, and Emerging Targets” (J Med Chem, 2017)
